Literature values as cited in patent US20220287964A1, “TOPICAL FORMULATIONS COMPRISING CANNABIDIOL, METHOD OF PREP ARING THE COMPOSITION AND USE THEREOF” (CS Medica A/S, priority 2019, published 2022).

Details: oral administration, given for comparison; cited from earlier work

SMILES: C=C(C)[C@@H]1CCC(C)=C[C@H]1c1c(O)cc(CCCCC)cc1O [cannabidiol, Cannabidiol]
- Absorbed through the gastrointestinal passage: less than 10%
